This passage reports IC50 results from patent US11744824B2, “2-amino-3-carbonyl imidazopyridine and pyrazolopyridine compounds” (1ST Biotherapeutics, Inc., priority 2020, dated 2023).

Bounds are passed on as bounds.

Experiment [1] has as its target GST-tagged recombinant human RIP2 (Homo sapiens (Human), UniProt O43353). The experiment can be described thus: RIP2 Kinase Assay (ADP-Glo). The format is biochemical. The following applies: in vitro kinase activity, ATP 25 μM. How it is done: GST-tagged recombinant human RIP2 (25 ng) is incubated with 5 μL of compounds (0.5% DMSO), 5 μL of MBP (0.5 μg/μl) and 5 μL of ATP (25 μM) in buffer (40 mM Tris, 7.5; 20 mM MgCl2; 0.1 mg/ml BSA; 50 μM DTT). The assay was started by incubating the reaction mixture in a 96-well plate at 30° C. for 60 minutes. After the incubation, 25 μL ADP-Glo reagent was added, and the reaction was incubated at 30° C. for 40 minutes to stop the reaction and degrade residual ATP. The ADP product was then converted to ATP by adding 50 μL per well of detection reagent. Luminescence was detected after 30 minutes room temperature incubation with the Molecular device I3X plate reader. The IC50 values were calculated from a series of percent inhibition values determined at a range of inhibitor concentration using software routines as implemented in the GraphPad Prism 7 software and SigmaPlot 13.0.
For orientation: In ADP-Glo the light output rises with the ADP produced.

For experiment [2], the system named is IL-6 secretion in BV-2 mouse microglia cells. As to the kind of experiment: IL-6 Secretion in BV-2 Cell (L18-MDP stimulated, ELISA). It counts as cell-based. The following applies: BV-2 cells, 10 μg/ml L18-MDP, 24 hr. The protocol:
IL-6 Secretion in BV-2 Cell
BV-2 mouse microglia cells were kindly provided from Dr. Bae in Korea Institute of Science and Technology (KIST). BV-2 cells were thawed and suspended in Dulbecco's modified eagle medium (DMEM) supplemented with 10% fetal bovine serum (FBS) and 1% Penicillin/Streptomycin. Cells were seeded into 96 well plates at 2×10^4 cells/well and allowed to attach for 24 hr. On the day of the experiment, various concentration of FB compounds was treated, and cells were stimulated with 10 μg/ml L18-MDP. After 24 hr incubation, supernatant was collected for cytokine assay.
Absorbance at 450 nm was measured using SpectraMax i3X microplate reader (Molecular Device). Values of media-only wells were subtracted and % inhibition for each compound concentration relative to the DMSO/L18-MDP-treated controls (100%) was calculated. The IC50 values were calculated from a series of percent activity values using software as implemented in the GraphPad Prism 7 software and SigmaPlot 13.0.
Background: An ELISA detects its analyte on a solid surface through an enzyme-linked reagent.

Experiment [3] concerns the target His-tagged recombinant human ABL1 (Homo sapiens (Human), UniProt P00519). The experiment can be described thus: c-Abl Kinase Assay (ADP-Glo). The settings on record: in vitro kinase activity, ATP 25 μM. The format is biochemical. The protocol:
ADP-Glo assay kit was purchased from Promega. Magnesium chloride (MgCl2), bovine serum albumin (BSA), ethylene glycol-bis(β-aminoethyl ether)-N,N,N′,N′-tetraacetic acid (EGTA), tween-20, 1,4-dithiothreitol (DTT) and dimethyl sulfoxide (DMSO) were purchased from Sigma-Aldrich. HEPES buffer was purchased from Gibco. ABL1 kinase and Abltide were purchased from Signalchem.
c-Abl kinase activity was measured by Promega's ADP-Glo™ Assay. In this assay, His-tagged recombinant human ABL1 (0.25 ng/μl) is incubated with 5 μL of compounds (0.5% DMSO), 5 μL of Abltide (0.01 μg/μl) and 5 μL of ATP (25 μM) in buffer (50 mM HEPES, 7.5; 10 mM MgCl2; 1 mM EGTA; 0.05% BSA; 0.01% Tween-20; 2 mM DTT). The assay was started by incubating the reaction mixture in a 96-well plate at 30° C. for 30 min. After the incubation, 25 μL ADP-Glo reagent was added and the reaction was incubated at room temperature for 40-min to stop the reaction and degrade residual ATP. The ADP product was then converted to ATP by adding 50 μL per well of detection reagent. Luminescence was detected after 30-min room temperature incubation with the Molecular device I3X plate reader. The IC50 values were calculated from a series of percent inhibition values determined at a range of inhibitor concentration using software routines as implemented in the GraphPad Prism 7 software and Sigma Plot 13.0.

Chain of GST-tagged recombinant human RIP2 (O43353 whole entry): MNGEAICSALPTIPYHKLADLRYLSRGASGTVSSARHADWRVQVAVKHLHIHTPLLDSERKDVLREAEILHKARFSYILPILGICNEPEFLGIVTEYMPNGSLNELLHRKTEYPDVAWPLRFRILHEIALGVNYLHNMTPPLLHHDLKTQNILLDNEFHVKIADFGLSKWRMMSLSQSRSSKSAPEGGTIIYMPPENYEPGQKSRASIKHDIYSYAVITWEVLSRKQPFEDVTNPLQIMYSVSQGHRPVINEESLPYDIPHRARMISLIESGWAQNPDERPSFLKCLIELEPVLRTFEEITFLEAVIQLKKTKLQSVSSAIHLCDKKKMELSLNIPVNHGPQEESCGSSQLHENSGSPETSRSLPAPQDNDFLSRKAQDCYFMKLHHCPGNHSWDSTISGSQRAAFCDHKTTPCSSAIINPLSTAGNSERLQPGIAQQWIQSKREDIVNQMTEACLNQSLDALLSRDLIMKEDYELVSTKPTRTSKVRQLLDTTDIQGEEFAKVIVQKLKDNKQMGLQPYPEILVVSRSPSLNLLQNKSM
Chain of His-tagged recombinant human ABL1 (P00519 whole entry): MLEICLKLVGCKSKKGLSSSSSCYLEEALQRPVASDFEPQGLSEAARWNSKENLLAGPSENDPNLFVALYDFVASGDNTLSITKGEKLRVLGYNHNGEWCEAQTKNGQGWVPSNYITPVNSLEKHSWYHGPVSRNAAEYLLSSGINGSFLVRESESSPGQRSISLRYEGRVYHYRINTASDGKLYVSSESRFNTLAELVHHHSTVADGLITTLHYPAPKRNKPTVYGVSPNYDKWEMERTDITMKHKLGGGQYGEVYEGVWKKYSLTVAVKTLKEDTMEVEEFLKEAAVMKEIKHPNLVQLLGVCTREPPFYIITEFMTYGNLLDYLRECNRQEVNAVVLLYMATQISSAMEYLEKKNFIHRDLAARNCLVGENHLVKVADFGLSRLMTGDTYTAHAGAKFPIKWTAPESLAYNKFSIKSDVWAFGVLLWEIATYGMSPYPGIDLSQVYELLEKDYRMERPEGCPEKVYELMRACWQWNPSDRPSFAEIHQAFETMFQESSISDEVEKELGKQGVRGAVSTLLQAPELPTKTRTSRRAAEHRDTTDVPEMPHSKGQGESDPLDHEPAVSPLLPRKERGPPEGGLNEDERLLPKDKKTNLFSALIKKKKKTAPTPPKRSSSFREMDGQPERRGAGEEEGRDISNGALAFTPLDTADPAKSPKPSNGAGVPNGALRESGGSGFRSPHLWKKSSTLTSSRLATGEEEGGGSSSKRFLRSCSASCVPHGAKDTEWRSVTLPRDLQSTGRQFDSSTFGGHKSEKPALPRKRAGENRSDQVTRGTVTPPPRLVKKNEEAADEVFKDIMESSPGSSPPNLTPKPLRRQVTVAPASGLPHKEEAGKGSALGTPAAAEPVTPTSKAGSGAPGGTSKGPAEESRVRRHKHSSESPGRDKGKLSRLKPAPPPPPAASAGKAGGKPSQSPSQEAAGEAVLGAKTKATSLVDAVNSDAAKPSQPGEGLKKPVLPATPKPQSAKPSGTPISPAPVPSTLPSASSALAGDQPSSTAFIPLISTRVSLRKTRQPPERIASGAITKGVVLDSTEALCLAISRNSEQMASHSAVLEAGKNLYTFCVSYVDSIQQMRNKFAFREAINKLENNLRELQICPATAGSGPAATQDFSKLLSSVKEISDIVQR

Consider `Cc1ccc2[nH]ncc2c1-c1ccc2nc(N)c(C(=O)C3CC3)n2c1` [Example 3], for which the IC50 (as a rule, the concentration that inhibits the measured activity by half) was 1 to 100 nM in experiment [1] and more than 1000 nM in experiment [2].

As to `Cc1c(F)cccc1-c1ccc2nc(N)c(C(=O)[C@@H]3C[C@@H]3F)n2c1` [Example 5], the values for the IC50 in experiment [1], in experiment [3] and in experiment [2] were 1 to 100 nM, 1 to 100 nM and 501 to 1000 nM, respectively.

Regarding `Nc1nc2ccc(-c3cnc4[nH]ccc4c3)cn2c1C(=O)[C@@H]1C[C@@H]1F` [Example 32], the IC50 was in the range of 1 to 100 nM in experiment [1] and 101 to 500 nM in experiment [2].

For the molecule `Nc1nc2ccc(-c3cnc4[nH]ccc4c3Cl)cn2c1C(=O)[C@@H]1C[C@@H]1F` [Example 41], the figures for the IC50 in experiment [1] and in experiment [2] were 1 to 100 nM and 101 to 500 nM, respectively.

`Nc1nc2ccc(-c3cccc(F)c3Cl)cn2c1C(=O)[C@@H]1C[C@@H]1F` [Example 44]: the results for the IC50 in experiment [1] and in experiment [2] were 1 to 100 nM and 501 to 1000 nM, respectively.

For `Nc1nc2ccc(-c3c(Cl)c(F)cc4[nH]ncc34)cn2c1C(=O)[C@@H]1C[C@@H]1F` [Example 64], the results for the IC50 in experiment [1] and in experiment [2] were 1 to 100 nM and 101 to 500 nM, respectively.

Regarding `CN(C)c1c(F)c(Cl)c(-c2ccc3nc(N)c(C(=O)[C@@H]4C[C@@H]4F)n3c2)c2cn[nH]c12` [Example 65], the IC50 in experiment [1] and in experiment [2] was more than 1000 nM each time.

As to `Nc1nc2ccc(-c3ccc4[nH]ccc4c3)cn2c1C(=O)c1ccccn1` [Example 67], the concentration for half-maximal inhibition (IC50) in experiment [1] is 1 to 100 nM; in experiment [2], 501 to 1000 nM.

With `Nc1nc2ccc(-c3cnc4[nH]ccc4c3)cn2c1C(=O)c1ccccn1` [Example 68], the IC50 lay in the range of 1 to 100 nM in experiment [1] and 101 to 500 nM in experiment [2].

`Nc1nc2ccc(-c3cnc4[nH]ccc4c3F)cn2c1C(=O)[C@@H]1C[C@@H]1F` [Example 69]: the IC50 in experiment [1] lay within 1 to 100 nM; in experiment [2], 501 to 1000 nM.

As for `Nc1nc2ccc(-c3ccc4[nH]ccc4c3Cl)cn2c1C(=O)[C@@H]1C[C@@H]1F` [Example 73], the IC50 in experiment [1] fell in the range of 1 to 100 nM; in experiment [2] it was 101 to 500 nM.

Take `Cc1c(-c2ccc3nc(N)c(C(=O)c4ccccn4)n3c2)cnc2[nH]ccc12` [Example 74]: the values for the IC50 in experiment [1] and in experiment [2] were 1 to 100 nM and 101 to 500 nM, respectively.

In the case of `Nc1nc2ccc(-c3cnc4[nH]ccc4c3Cl)cn2c1C(=O)c1ccccn1` [Example 75], the values for the IC50 in experiment [1] and in experiment [2] were 1 to 100 nM and 501 to 1000 nM, respectively.

With `Nc1nc2ccc(-c3cnc4[nH]ccc4c3)cn2c1C(=O)c1ncccn1` [Example 79], the IC50 is 1 to 100 nM in experiment [1] and more than 1000 nM in experiment [2].

In the case of `Cc1c(-c2ccc3nc(N)c(C(=O)C4CNC4)n3c2)cnc2[nH]ccc12` [Example 82], the results for the IC50 in experiment [1] and in experiment [2] were 1 to 100 nM and more than 1000 nM, respectively.

For `Nc1nc2ccc(-c3cnc4[nH]ccc4c3Cl)cn2c1C(=O)C1CNC1` [Example 83], the IC50 in experiment [1] was 1 to 100 nM; in experiment [2], more than 1000 nM.

Consider `Cc1c(-c2ccc3nc(N)c(C(=O)c4ccncn4)n3c2)cnc2[nH]ccc12` [Example 84], for which the figures for the IC50 in experiment [1] and in experiment [2] were 1 to 100 nM and 501 to 1000 nM, respectively.

Consider `Cc1c(-c2ccc3nc(N)c(C(=O)c4ncccn4)n3c2)cnc2[nH]ccc12` [Example 85], for which the IC50 was in the range of 1 to 100 nM in experiment [1] and 501 to 1000 nM in experiment [2].

Take `Nc1nc2ccc(-c3cnc4[nH]ccc4c3)cn2c1C(=O)C1CNC1` [Example 86]: the results for the IC50 in experiment [1] and in experiment [2] were 1 to 100 nM and more than 1000 nM, respectively.

For the molecule `Cc1c(-c2ccc3nc(N)c(C(=O)[C@@H]4C[C@@H]4F)n3c2)ccc2[nH]ncc12` [Example 90], the IC50 in experiment [1] is 1 to 100 nM; in experiment [2] it was 501 to 1000 nM.

For the molecule `Cc1c(-c2ccc3nc(N)c(C(=O)C4CCNC4)n3c2)cnc2[nH]ccc12` (stereo not shown) [Example 94], the IC50 was 1 to 100 nM in experiment [1] and more than 1000 nM in experiment [2].

As for `Nc1nc2ccc(-c3cnc4[nH]ccc4c3Cl)cn2c1C(=O)C1CCNC1` (stereo not shown) [Example 95], the IC50 in experiment [1] is 1 to 100 nM; in experiment [2] it was more than 1000 nM.

Turning to `Cc1ccc2[nH]ccc2c1-c1ccc2nc(N)c(C(=O)[C@@H]3C[C@@H]3F)n2c1` [Example 100], the IC50 in experiment [1] lay in the range of 1 to 100 nM; in experiment [2] it was 101 to 500 nM.

On to `Nc1nc2ccc(-c3c(F)ccc4[nH]ccc34)cn2c1C(=O)[C@@H]1C[C@@H]1F` [Example 101], for which the IC50 in experiment [1] is 1 to 100 nM; in experiment [2], 501 to 1000 nM.

For `Nc1nc2ccc(-c3c[nH]c4ncccc34)cn2c1C(=O)[C@@H]1C[C@@H]1F` [Example 110], the IC50 in experiment [1] was 1 to 100 nM; in experiment [2] it was 501 to 1000 nM.

For `Nc1nc2ccc(-c3ccnc4ccccc34)cn2c1C(=O)[C@@H]1C[C@@H]1F` [Example 115], the IC50 in experiment [1] lay in the range of 1 to 100 nM; in experiment [2], 101 to 500 nM.

Consider `C=Cc1c(F)cccc1-c1ccc2nc(N)c(C(=O)[C@@H]3C[C@@H]3F)n2c1` [Example 145], for which the IC50 in experiment [1] was in the range of 1 to 100 nM.

For `CNc1cc(F)cc(-c2ccc3nc(N)c(C(=O)[C@@H]4C[C@@H]4F)n3c2)c1C` [Example 146], the IC50 in experiment [1] lay in the range of 101 to 500 nM.

Take `Cc1c(-c2ccc3nc(N)c(C(=O)[C@@H]4C[C@@H]4F)n3c2)cc(F)cc1N(C)C` [Example 147]: the IC50 in experiment [1] was in the range of 101 to 500 nM.

Turning to `Cc1c(F)cccc1Nc1ccc2nc(N)c(C(=O)[C@@H]3C[C@@H]3F)n2c1` [Example 148, (2-amino-6-((3-fluoro-2-methylphenyl)amino)imidazo[1,2-a]pyridin-3-yl)((1S,2S)-2-fluorocyclopropyl)methanone], the IC50 in experiment [1] fell in the range of 101 to 500 nM.

For the molecule `CN(C)c1c(F)c(Cl)c(-c2ccc3nc(N)c(C(=O)NC4CC4)n3c2)c2cn[nH]c12` [Example 149], the IC50 in experiment [1] is more than 1000 nM.

For `CSc1c(F)c(Cl)c(-c2ccc3nc(N)c(C(=O)O[C@@H]4COC[C@H]4C)n3c2)c2cn[nH]c12` [Example 151, (3S,4R)-4-methyltetrahydrofuran-3-yl 2-amino-6-(5-chloro-6-fluoro-7-(methylthio)-1H-indazol-4-yl)imidazo[1,2-a]pyridine-3-carboxylate], in experiment [1], the IC50 is more than 1000 nM.

As to `Nc1nn2ccc(-c3cccc4[nH]ccc34)cc2c1C(=O)C1CC1` [Example 152], the IC50 in experiment [1] was 1 to 100 nM; in experiment [2] it was 101 to 500 nM.

Take `Cc1c(F)cc2[nH]ncc2c1-c1ccn2nc(N)c(C(=O)C3CC3)c2c1` [Example 153, (2-amino-5-(6-fluoro-5-methyl-1H-indazol-4-yl)pyrazolo[1,5-a]pyridin-3-yl)(cyclopropyl)methanone]: the IC50 in experiment [1] lay within 1 to 100 nM; in experiment [2], 501 to 1000 nM.

Take `Cc1c(F)cccc1-c1ccn2nc(N)c(C(=O)C3CC3)c2c1` [Example 154]: the IC50 in experiment [1] was 1 to 100 nM; in experiment [2], more than 1000 nM.

Turning to `Cc1c(F)cc(N)cc1-c1ccc2nc(N)c(C(=O)[C@@H]3C[C@@H]3F)n2c1` [Example 155], in experiment [1], the IC50 was in the range of 1 to 100 nM.

For the molecule `Nc1nc2ccc(-c3ccc4[nH]ccc4c3)cn2c1C(=O)[C@H]1C[C@H]1F` [Example 156], the IC50 in experiment [1] was 1 to 100 nM.

For the molecule `Nc1nc2ccc(-c3ccc4[nH]ccc4c3)cn2c1C(=O)[C@H]1C[C@@H]1F` [Example 157], the IC50 in experiment [1] was 1 to 100 nM.

For `Nc1nc2ccc(-c3ccc4[nH]ccc4c3)cn2c1C(=O)[C@@H]1C[C@H]1F` [Example 158], the IC50 in experiment [1] lay in the range of 1 to 100 nM.

Turning to `Cc1c(-c2ccc3nc(N)c(C(=O)[C@H]4C[C@H]4F)n3c2)ccc2[nH]ccc12` [Example 159], the IC50 in experiment [1] was 1 to 100 nM.

Regarding `Cc1c(F)cccc1Oc1ccc2nc(N)c(C(=O)[C@@H]3C[C@@H]3F)n2c1` [Example 160], the IC50 in experiment [1] lay in the range of 101 to 500 nM.

Take `Cc1c(-c2ccc3nc(N)c(C(=O)[C@H]4C[C@@H]4F)n3c2)ccc2[nH]ccc12` [Example 161]: the IC50 in experiment [1] was 1 to 100 nM.

Consider `Cc1c(-c2ccc3nc(N)c(C(=O)[C@@H]4C[C@H]4F)n3c2)ccc2[nH]ccc12` [Example 162], for which, in experiment [1], the half-inhibitory concentration (IC50) was 1 to 100 nM.
